Results taken from US20090088432A1, “Thiazolinones and Oxazolinones and their Use as Ptp1b Inhibitors” (priority 2005, published 2009).
Counter-ions that a name gives are not always drawn.

Biological target: T1, Recombinant human Protein-tyrosine phosphatase1B (PTP1B) (Homo sapiens, UniProt P18031)
T1 construct: Recombinant human Protein-tyrosine phosphatase1B (PTP1B) (amino acid 1-322 Biomol, USA); purchased Biomol, USA
T1 sequence (P18031 1-322): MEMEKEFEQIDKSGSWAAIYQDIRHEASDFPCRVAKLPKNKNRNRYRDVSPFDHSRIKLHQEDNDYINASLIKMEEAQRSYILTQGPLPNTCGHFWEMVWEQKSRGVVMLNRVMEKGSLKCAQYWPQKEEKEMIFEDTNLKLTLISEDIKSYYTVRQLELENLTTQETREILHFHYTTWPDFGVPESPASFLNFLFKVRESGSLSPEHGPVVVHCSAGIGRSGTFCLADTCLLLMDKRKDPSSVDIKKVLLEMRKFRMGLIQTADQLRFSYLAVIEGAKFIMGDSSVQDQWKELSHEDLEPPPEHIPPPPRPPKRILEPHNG
Test: PTP1B enzyme inhibition assay (pNpp substrate)
Assay type: biochemical
Details: inhibition of recombinant human PTP1B, pNpp 5 mM, 30 mins at 25° C; inhibitor concentration not given
In short: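 Recombinant human PTP1B (0.016 μg/well) preincubated with compound 30 min at 25 °C in 50 mM HEPES pH 7.4, 1 mM EDTA, 1 mM DTT, 0.05% Igepal, 1% DMSO final. Reaction started with 5 mM pNpp, run 30 min at 25 °C; p-nitrophenol read at 410 nm.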

| SMILES | Activity Score |
| --- | --- |
| O=C(O)Cc1ccc(NC2=NC(=O)C(=Cc3ccc(-n4cccc4)cc3)S2)cc1 [Compound 18, {4-[4-Oxo-5-(4-pyrrol-1-yl-benzylidene)-4,5-dihydro-thiazol-2-ylamino]-phenyl}-acetic acid] | (+++) (+++ = >50% inhibition) |
| O=C(O)COc1ccc(-c2ccc(C=C3SC(Nc4ccc(CC(=O)O)cc4)=NC3=O)cc2)cc1 [Compound 201, {4-[5-(4′-Carboxymethoxy-biphenyl-4-ylmethylene)-4-oxo-4,5-dihydro-thiazol-2-ylamino]-phenyl}-acetic acid] | (+++) (+++ = >50% inhibition) |
| O=C(O)Cc1ccc(NC2=NC(=O)C(=Cc3ccc(-c4ccccc4)cc3)O2)cc1 [Compound 100, [4-(5-Biphenyl-4-ylmethylene-4-oxo-4,5-dihydro-oxazol-2-ylamino)-phenyl]-acetic acid] | (++) (++ = 20-50% inhibition) |
| O=C(O)Cc1ccc(NC2=NC(=O)C(=Cc3cccc(-n4cncn4)c3)S2)cc1 [Compound 87, {4-[4-Oxo-5-(3-[1,2,4]triazol-1-yl-benzylidene)-4,5-dihydro-thiazol-2-ylamino]-phenyl}-acetic acid] | (+) (+ = 10-20% inhibition) |
| CSc1ccc(-c2ccc(C=C3SC(Nc4ccc(CC(=O)NS(=O)(=O)c5ccc(C(F)(F)F)cc5)cc4)=NC3=O)c(F)c2)cc1.[Na] [Compound 239, N-(2-{4-[5-(3-Fluoro-4′-methylsulfanyl-biphenyl-4-ylmethylene)-4-oxo-4,5-dihydro-thiazol-2-ylamino]-phenyl}-acetyl)-4-trifluoromethyl-benzenesulfonamide sodium salt] | (+) (+ = 10-20% inhibition) |
| CS(=O)(=O)NC(=O)Cc1ccc(NC2=NC(=O)C(=Cc3ccc(-c4ccccc4)cc3)S2)cc1.[Na] [Compound 225, N-{2-[4-(5-Biphenyl-4-ylmethylene-4-oxo-4,5-dihydro-thiazol-2-ylamino)-phenyl]-acetyl}-methanesulfonamide, sodium salt] | (+) (+ = 10-20% inhibition) |
| O=C(O)Cc1ccc(NC2=NC(=O)C(=Cc3ccc(C(=O)N4CCOCC4)cc3)S2)cc1 [Compound 36, (4-{5-[4-(Morpholine-4-carbonyl)-benzylidene]-4-oxo-4,5-dihydro-thiazol-2-ylamino}-phenyl)-acetic acid] | (+) (+ = 10-20% inhibition) |
| CC(=C1SC(Nc2ccc(CC(=O)O)cc2)=NC1=O)c1cc2ccccc2o1 [Compound 13, {4-[5-(1-Benzofuran-2-yl-ethylidene)-4-oxo-4,5-dihydro-thiazol-2-ylamino]-phenyl}-acetic acid] | (++) (++ = 20-50% inhibition) |
| O=C(Cc1ccc(NC2=NC(=O)C(=Cc3ccc(-c4ccccc4)cc3)S2)cc1)NS(=O)(=O)c1ccc(F)cc1.[Na] [Compound 224, N-{2-[4-(5-Biphenyl-4-ylmethylene-4-oxo-4,5-dihydro-thiazol-2-ylamino)-phenyl]-acetyl}-4-fluoro-benzenesulfonamide, sodium salt] | (++) (++ = 20-50% inhibition) |
| O=C(O)Cc1cccc(NC2=NC(=O)C(=Cc3ccc4ccccc4c3)S2)c1 [Compound 16, [3-(5-Naphthalen-2-ylmethylene-4-oxo-4,5-dihydro-thiazol-2-ylamino)-phenyl]-acetic acid] | (+) (+ = 10-20% inhibition) |
| CC(C)Oc1cc2ccccc2cc1C=C1SC(Nc2cccc(CC(=O)O)c2)=NC1=O [Compound 21, {3-[5-(3-Isopropoxy-naphthalen-2-ylmethylene)-4-oxo-4,5-dihydro-thiazol-2-ylamino]-phenyl}-acetic acid] | (+++) (+++ = >50% inhibition) |
| CCC(C(=O)[O-])c1ccc(NC2=NC(=O)C(=Cc3cc4ccccc4cc3OCc3ccccc3)S2)cc1.[Na+] [Compound 84, 2-{4-[L-(3-Benzyloxy-naphthalen-2-ylmethylene)-4-oxo-4,5-dihydro-thiazol-2-ylamino]-phenyl}-sodium butyrate] | (+++) (+++ = >50% inhibition) |
| Cc1ccc(S(=O)(=O)NC(=O)Cc2ccc(NC3=NC(=O)C(=Cc4ccc(-c5ccc(F)cc5)cc4)S3)cc2)cc1 [Compound 215, N-(2-{4-[5-(4′-Fluoro-biphenyl-4-ylmethylene)-4-oxo-4,5-dihydro-thiazol-2-ylamino]-phenyl}-acetyl)-4-methyl-benzenesulfonamide sodium salt] | (+++) (+++ = >50% inhibition) |
